The test system of the test is B6C3F1 mice, Lewis lung carcinoma iv, survival T/C. The test is described as follows: NCI In Vivo Anticancer Drug Screen. Data for tumor model Lewis Lung Carcinoma (intravenous) in B6C3F1 mice. The settings on record: endpoint: median survival time, schedule: Q01DX009 (ip), higher = longer survival. In outline:
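T/C ratio derived from survival of compound-treated versus vehicle-treated mice bearing transplantable tumors.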

Where [1] appears, read: dose: 6.25 mg/kg/injection, vehicle: saline with Tween-80.
[2] abbreviates: dose: 12.5 mg/kg/injection, vehicle: saline with Tween-80.
Where [3] appears, read: dose: 25.0 mg/kg/injection, vehicle: saline with Tween-80.
Setting [4] is: dose: 25.0 mg/kg/injection, vehicle: Klucel (hydroxypropylcellulose) (HPC).
The mark [5] stands for this setting: dose: 50.0 mg/kg/injection, vehicle: Klucel (hydroxypropylcellulose) (HPC).
[6] abbreviates: dose: 100.0 mg/kg/injection, vehicle: Klucel (hydroxypropylcellulose) (HPC).
Where [7] appears, read: dose: 200.0 mg/kg/injection, vehicle: Klucel (hydroxypropylcellulose) (HPC).
Setting [8] is: dose: 400.0 mg/kg/injection, vehicle: Klucel (hydroxypropylcellulose) (HPC).
The mark [9] stands for this setting: dose: 12.5 mg/kg/injection, vehicle: suspension in saline.
Where [10] appears, read: dose: 25.0 mg/kg/injection, vehicle: suspension in saline.
Setting [11] is: dose: 50.0 mg/kg/injection, vehicle: suspension in saline.
[12] abbreviates: dose: 50.0 mg/kg/injection, vehicle: saline with Tween-80.
[13] abbreviates: dose: 100.0 mg/kg/injection, vehicle: saline with Tween-80.
[14] abbreviates: dose: 3.12 mg/kg/injection, vehicle: saline.
Setting [15] is: dose: 6.25 mg/kg/injection, vehicle: saline.
[16] abbreviates: dose: 12.5 mg/kg/injection, vehicle: saline.

“And” between values parts separate entries of the source, which are not always exact repeats. Equal values may be shown once. Toxic doses and inconclusive results are not listed.

As to `CC(=O)OC1C2(CC3N4C(=O)C5(CO)SSC4(CC31O)C(=O)N5C)OC(C)C(C)(C)C2=O` (stereo not given), the T/C (dose: 0.08 mg/kg/injection, vehicle: saline) is 101 % of control; the T/C (dose: 0.15 mg/kg/injection, vehicle: saline) was 88 % of control; the T/C (dose: 0.31 mg/kg/injection, vehicle: saline) is 105 % of control; the T/C (dose: 0.62 mg/kg/injection, vehicle: saline) is 92 % of control; the T/C (dose: 1.25 mg/kg/injection, vehicle: saline) was 86 % of control.
As for `CCS/C(SC)=C(/c1ccccc1)[P+](c1ccccc1)(c1ccccc1)c1ccccc1`, the T/C is 106 % of control (dose: 0.12 mg/kg/injection, vehicle: Klucel (hydroxypropylcellulose) (HPC)); 108 % of control (dose: 0.25 mg/kg/injection, vehicle: Klucel (hydroxypropylcellulose) (HPC)); 101 % of control (dose: 0.5 mg/kg/injection, vehicle: Klucel (hydroxypropylcellulose) (HPC)); 104 % of control (dose: 1.0 mg/kg/injection, vehicle: Klucel (hydroxypropylcellulose) (HPC)); 100 % of control (dose: 1.5 mg/kg/injection, vehicle: Klucel (hydroxypropylcellulose) (HPC)); 93 % of control (dose: 2.0 mg/kg/injection, vehicle: Klucel (hydroxypropylcellulose) (HPC)).
Take `CCC1=C2C(=O)c3ccccc3C2=C(C)S(=O)(=O)O1`: the T/C is 104 % of control (dose: 3.12 mg/kg/injection, vehicle: saline with Tween-80); 99 % of control under setting [1]; 97 % of control under setting [2]; 107 % of control under setting [3].
On to `CC1=CC(=Nc2ccc(N(CCCl)CCCl)cc2)C=C(C)C1=O`, for which the T/C under setting [2] was 109 % of control and the T/C under setting [3] is 116 % of control.
For `C[C@]12C=CC(=O)C=C1CC[C@@H]1[C@@H]2[C@@H](O)C[C@@]2(C)[C@H]1CC[C@]2(O)C(=O)CO`, the T/C runs as follows: under setting [4], 107 % of control; under setting [5], 118 % of control; under setting [6], 107 % of control; under setting [7], 118 % of control; under setting [8], 107 % of control.
Regarding `Clc1ccc(C2SC=Cc3ccccc32)cc1` (stereo not given), the T/C under setting [4] is 115 % of control; the T/C under setting [5] was 114 % of control; the T/C under setting [6] is 110 % of control; the T/C under setting [7] is 107 % of control; the T/C under setting [8] was 105 % of control.
On to `COc1cc2c[n+](C)c3c(c2cc1OC)Cc1cc2c(cc1-3)OCO2`, for which the T/C was 97 % of control under setting [9], 114 % of control under setting [10] and 119 % of control under setting [11].
Regarding `COc1cc(Cl)ccc1C`, the T/C was 102 % of control under setting [2]; 98 % of control under setting [3]; 100 % of control under setting [12]; 97 % of control under setting [13]; 97 % of control (dose: 200.0 mg/kg/injection, vehicle: saline with Tween-80).
As for `O=C(O)[C@H](Cc1ccccc1)N1C(=O)c2ccccc2C1=O`, the T/C was 102 % of control (dose: 3.12 mg/kg/injection, vehicle: DMSO); 105 % of control (dose: 6.25 mg/kg/injection, vehicle: DMSO); 105 % of control (dose: 12.5 mg/kg/injection, vehicle: DMSO); 100 % of control (dose: 25.0 mg/kg/injection, vehicle: DMSO); 98 % of control (dose: 50.0 mg/kg/injection, vehicle: DMSO).
As to `Cc1ccc2nc(-c3ccc4nc(-c5ccc(N=Nc6ccc(-c7nc8ccc(-c9nc%10ccc(C)c(S(=O)(=O)O)c%10s9)cc8s7)cc6)cc5)sc4c3)sc2c1S(=O)(=O)O`, the T/C under setting [9] was 95 % of control; the T/C under setting [10] was 98 % of control; the T/C under setting [11] was 107 % of control; the T/C (dose: 100.0 mg/kg/injection, vehicle: suspension in saline) is 107 % of control.
Consider `O=C1CN(Cc2ccc3c(c2)OCO3)NO1`, for which the T/C is 104 % of control and 109 % of control under setting [1]; 106 % of control and 87 % of control under setting [2]; 104 % of control and 123 % of control under setting [3]; 104 % of control and 111 % of control under setting [12]; 123 % of control and 86 % of control under setting [13].
In the case of `NC(=O)c1csc(C2OC(CO)C(O)C2O)n1` (stereo not given), the T/C by setting is: (dose: 0.78 mg/kg/injection, vehicle: saline) 94 % of control; (dose: 1.56 mg/kg/injection, vehicle: saline) 109 % of control; under setting [14], 108 % of control; under setting [15], 119 % of control; (dose: 12.0 mg/kg/injection, vehicle: saline) 155 % of control and 158 % of control; under setting [16], 284 % of control. Also, the T/C (dose: 25.0 mg/kg/injection, vehicle: water) was 240 % of control and 348 % of control and 355 % of control; the T/C (dose: 50.0 mg/kg/injection, vehicle: water) is 240 % of control and 348 % of control and 355 % of control; the T/C (dose: 62.5 mg/kg/injection, vehicle: water) was 295 % of control; the T/C (dose: 100.0 mg/kg/injection, vehicle: water) was 240 % of control and 348 % of control and 355 % of control; the T/C (dose: 125.0 mg/kg/injection, vehicle: water) is 295 % of control; the T/C (dose: 200.0 mg/kg/injection, vehicle: water) is 240 % of control and 348 % of control and 355 % of control. Moreover, the T/C (dose: 250.0 mg/kg/injection, vehicle: water) was 295 % of control; the T/C (dose: 400.0 mg/kg/injection, vehicle: water) is 240 % of control and 348 % of control and 355 % of control; the T/C (dose: 500.0 mg/kg/injection, vehicle: water) was 295 % of control; the T/C (dose: 800.0 mg/kg/injection, vehicle: water) is 240 % of control; the T/C (dose: 1000.0 mg/kg/injection, vehicle: water) was 295 % of control.
On to `O=NN(CCF)C(=O)NC1C(O)CCCC1O` (stereo not given), for which the T/C is, setting by setting: (dose: 2.5 mg/kg/injection, vehicle: saline) 116 % of control; (dose: 10.0 mg/kg/injection, vehicle: saline) 312 % of control; (dose: 20.0 mg/kg/injection, vehicle: saline) 104 % of control.
Turning to `O=C(O)C1CSCN1` (stereo not given), the T/C runs as follows: under setting [14], 99 % of control; under setting [15], 108 % of control; under setting [16], 100 % of control; (dose: 25.0 mg/kg/injection, vehicle: saline) 101 % of control; (dose: 50.0 mg/kg/injection, vehicle: saline) 101 % of control; (dose: 100.0 mg/kg/injection, vehicle: saline) 106 % of control.
`CNC(=O)/C=C/C1=CN2C(=O)c3ccc(C)c(O)c3NC(OC)C2C1` (stereo not given): the T/C by setting is: (dose: 0.01 mg/kg/injection, vehicle: saline) 90 % of control and 113 % of control; (dose: 0.02 mg/kg/injection, vehicle: saline) 93 % of control; (dose: 0.03 mg/kg/injection, vehicle: saline) 96 % of control; (dose: 0.05 mg/kg/injection, vehicle: saline) 97 % of control and 107 % of control; (dose: 0.1 mg/kg/injection, vehicle: saline) 90 % of control and 103 % of control.

These data come from PubChem BioAssay AID276 (DTP/NCI, 2004).
